What was measured:
[1] = system: Ovalbumin-sensitized mice; assay: Lung inflammation in ovalbumin-sensitized mice (cells in broncho-alveolar lavage); format: in vivo; details: intra-nasally 0.5 to 4 mg/kg/d for 3 days, n = 8, Fig. 30
Method: Ovalbumin-sensitized mice (ri=8) were challenged with the allergen and simultaneously treated intra-nasally with increasing concentrations of ASM-002 (0.5 to 4 mg/kg/d) for 3 days. The number of cells recovered by broncho-alveolar lavage was used as a measure of lung inflammation.

[2] = system: Tumor necrosis factor (TNF) release; assay: TNF release by LPS-stimulated human blood monocytes (ELISA); format: cell-based
Method: Human monocytes were isolated from the blood of asthmatic patients by Ficoll-paque density gradient, let to adhere to tissue culture plates and stimulated with LPS (100ng/ml) for 18 hours at 37°C with or without increasing concentrations of nicotine. The release of TNF, a potent pro-inflammatory mediator, was measured in the cell culture supernatant by the ELISA method. Results are expressed as a percentage release from LPS-stimulated untreated cells (Fig. 28).
Tumor necrosis factor (TNF) is a mediator released in inflammatory states. Human blood monocytes were stimulated in vitro with lipopolysaccharide (LPS) to produce large amounts of TNF, increasing doses of ASM-002 were added and the levels of TNF were measured (Fig. 37, EC50= 3µM, n=6, p= 0,0045 at 5 µm, 0,0014 at 10 µm and 0,0003 at 50 µm).

[3] = system: dogs naturally sensitized to the roundworm Ascaris suum; assay: Dog asthma model: cellular inflammation in bronchoalveolar lavages; format: in vivo; details: ASM-002 8 mg/kg (4mg/kg 2x day in the food), prednisone 1mg/kg 1x day in the food, n = 12; Fig. 32
Method: (§1) In this model 12 dogs naturally sensitized to the roundworm Ascaris suum were used in a cross-over study design. Four groups of 3 dogs were randomly formed, exposed to the allergen, and each animal was left either untreated or received alternalively, ASM-002 (4mg/kg 2x day in the food), or prednisone (1mg/kg 1x day in the food), the most commonly used corticosteroid drug used to treat inflammation in asthma.
Cellular inflammation was evaluated in the bronchoalveolar lavages.

[4] = system: dogs naturally sensitized to the roundworm Ascaris suum; assay: Dog model of lung hyper-responsiveness (metacholine, lung resistance); format: in vivo; details: 12 hyperresponsive dogs, increasing concentrations of metacholine; Fig. 33
Method: as §1
Hyper-responsiveness is described as the capacity of the lung to react (to increase lung resistance) to a non-specific external stimuli like metacholine or to allergens. A hyper-responsive allergen-sensitized dog (asthmatic) will react to lower concentrations of metacholine compared to a non allergic dog. Similarly, improvement in lung hyper-responsivenes is shown by an increase in metacholine concentrations necessary to induce the same level of lung resistance.
Increasing concentrations of metacholine were administered with or without treatment with ASM-002 or Prednisone™ and lung resistance recorded.

[5] = system: mouse tracheal airway smooth muscle; assay: Isometric study on isolated mouse tracheal rings pre-contracted with metacholine; details: cumulative doses of ASM-002; Fig. 34, p=0.002
Method: Tracheal rings were mounted isometrically to force transducers in organ baths containing Krebs bicarbonate solution at 37°C and bubbled with 95% O2- 5% CO2, pre-contracted with submaximal concentration of metacholine (10^-5) and cumulative doses of the analogs were added to the baths. Changes of tension are recorded. Results are expressed as a percentage of maximal contraction (Fig. 29).
(§2) As described previously, tracheal or bronchial rings were mounted isometrically to force transducers in organ baths containing Krebs bicarbonate solution at 37°C and bubbled with 95% O2- 5% CO2,pre-contracted with submaximal concentration of metacholine cumulative doses of ASM-002 added. Changes of tension are recorded.

[6] = system: Leukotriene C4 (LTC4)production; assay: LTC4 production by PAF-stimulated blood eosinophils (enzyme immunoassay); format: cell-based, Human; details: for LTC4: pre-incubated 18hours with analogs, then 1 µM PAF, untreated 1725.80
Method: Blood eosinophils, the most increased inflammatory cells in asthma, were isolated by negative selection using bead-conjugated anti-CD16 monoclonal antibody and magnetic activating cell sorting. Cells were pre-incubated for 18hours with the various DMPP analogs and then stimulated with 1 µM platelet-activating factor (PAF) to produce LTC4 which was measured by enzyme immunoassay. […] Table 1 Effects of DMPP and analogs on LTC4 release.
Leukotriene C4 (LTC4) is a inflammatory lipid mediator highly produced in asthma, it is released in large amounts by blood eosinophils.
Human blood eosinophils were isolated from blood of asthmatic patients, stimulated in vitro with platelet activating factor (PAF) to produce large amounts of LTC4 , and treated or not with 80 µM ASM-002.

[7] = system: bronchial rings from dog's lungs; assay: Isometric study on dog bronchial rings pre-contracted with metacholine; details: cumulative doses of ASM-002; Fig. 35, p=0.004
Method: as §2

[8] = system: bronchial rings from resected human lungs; assay: Isometric study on human bronchial rings pre-contracted with metacholine; details: cumulative doses of ASM-002; Fig. 36
Method: as §2

[9] = system: Ovalbumin-sensitized animals; assay: Lung resistance to metacholine in mouse model of asthma (Flexi-vent); format: in vivo, mice; details: ASM-002 4mg/kg intra-nasally 3 days and 10 minutes prior to challenge; Salbutamol 10 minutes before; Fig. 31
Method: Lung response to a broncho-constrictive agent, metacholine, was measured by a Flexi-vent® apparatus. Ovalbumin-sensitized animals were treated intra-nasally with ASM-002 (4mg/kg) during 3 days and 10 minutes prior to the metacholine challenge and compared to untreated OVA-sensitized animals. A negative control group of un-sensitized animals and a positive control group that received Salbutamol (Ventolin) 10 minutes before the metacholine challenge were also included.

**Q.** How did the “ED50, cellular inflammation in the lungs” value [1] turn out when “1,1-dimethyl-4-phenylhomopiperazinium iodide [ASM-002]” was run?
**A.** The value was 0.71 mg/kg.

**Q.** And the EC50 ([2]; LPS-stimulated human blood monocytes, increasing doses, n=6, Fig. 37, read-out: EC50, inhibition of TNF release)?
**A.** The EC50 was 3000 nM.

**Q.** And the TNF release ([2]; all drugs at 40 µM, mean of 5 subjects, Fig. 38)?
**A.** Its TNF release is “inhibits TNF release”.

**Q.** What about the “cellular inflammation in the lungs” value [3] of the same compound?
**A.** The value was “inhibits significantly the cellular inflammation”.

**Q.** And the “dogs with decreased lung resistance / improved hyper-responsiveness” value [4]?
**A.** Its value is 7 out of 12.

**Q.** What about the “relaxing effect on pre-contracted tracheas” value [5] of the same compound?
**A.** Its value is “relaxing effect”.

**Q.** What about the LTC4 production ([6]; 80 µM, PAF-stimulated eosinophils of asthmatic patients, 6 patients, Fig. 39, p=0.0007) of the same compound?
**A.** The LTC4 production was “significant inhibition”.

**Q.** And the LTC4 [6]?
**A.** The LTC4 was 246.40 pg/mL.

**Q.** And the “relaxing effect on pre-contracted bronchi” value [7]?
**A.** Its value is “relaxing effect”.

**Q.** And the “relaxing effect on pre-contracted bronchi” value [8]?
**A.** Its value is “relaxing effect”.

**Q.** What about the “lung resistance induced by metacholine” value [9] of the same compound?
**A.** The value was “significant reduction (return to baseline levels)”.

**Q.** With `CC(C)(C)NCC(O)c1ccc(O)c(CO)c1` (stereo not shown) [Salbutamol, reference compound] as the compound, how does the “lung resistance induced by metacholine” value [9] read?
**A.** The value was “This effect is similar to that obtained with Salbutamol”.

**Q.** Which LTC4 [6] does the source give for `CCC[N+]1(C)CCN(c2ccccc2)CC1` [ASM-004] here?
**A.** Its LTC4 is 601.60 pg/mL.

**Q.** With `C[N+]1(C)CCN(c2ccccc2)CC1` [DMPP, Dimethylphenylpiperazinium, reference compound] as the compound, how does the LTC4 [6] read?
**A.** The LTC4 was 545.00 pg/mL.

**Q.** With `CC[N+]1(CC)CCN(c2ccccc2)CC1` [ASM-005] as the compound, how does the TNF release ([2]; monocytes from asthmatic patients, LPS (100ng/ml) 18 hours at 37°C, increasing concentrations, Fig. 28) read?
**A.** Its TNF release is “Except for ASM-005, all analogs tested had an inhibitory effect on TNF release”.

**Q.** `C[C@]12C=CC(=O)C=C1CC[C@@H]1[C@@H]2C(=O)C[C@@]2(C)[C@H]1CC[C@]2(O)C(=O)CO` [Prednisone, prednisone, reference compound] was tested. Which “dogs with decreased lung resistance / improved hyper-responsiveness” value [4] did it give?
**A.** Its value is “None of the 12 dogs”.

Source: patent EP1773779B1, “NICOTINIC RECEPTOR AGONISTS FOR THE TREATMENT OF INFLAMMATORY DISEASES” (Université Laval, priority 2004, dated 2006)
